US20100298141A1, “SUBSTITUTED PYRIDINE N-OXIDE HERBICIDES” (E. I. DU PONT DE NEMOURS AND COMPANY, priority 2007, published 2010)

Legend:
[1] = test system: barnyardgrass; assay: Test C flooded paddy test; type: in vivo, Echinochloa crus-galli; settings: Flood
In short: (§1)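 Flooded 3 cm over soil; compound into paddy water; depth kept constant. Greenhouse 13–15 d.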

[2] = test system: umbrella sedge; assay: Test C flooded paddy test; type: in vivo, Cyperus difformis; settings: Flood
In short: as §1

[3] = test system: barnyardgrass; assay: Test A pre-/postemergence greenhouse test; type: in vivo, Echinochloa crus-galli; settings: for Plant response rating, Barnyardgrass: 0 to 100 scale where 0 is no effect and 100 is complete control; for Barnyardgrass plant response rating: 0 to 100 scale
In short: (§2)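 Seeds sown in a loam soil–sand blend got a preemergence directed soil spray of compound in a non-phytotoxic solvent mixture containing surfactant. Postemergence sprays of the same formulation went at the same time onto plants 2–10 cm tall at the one- to two-leaf stage. Injury was scored visually against untreated controls after about ten days in the greenhouse.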

[4] = test system: corn; assay: Test A pre-/postemergence greenhouse test; type: in vivo, Zea mays; settings: for Corn plant response rating: 0 to 100 scale; for Plant response rating, Corn: 0 to 100 scale where 0 is no effect and 100 is complete control
In short: as §2

[5] = test system: morningglory; assay: Test A pre-/postemergence greenhouse test; type: in vivo, Ipomoea spp.; settings: for Plant response rating, Morningglory: 0 to 100 scale where 0 is no effect and 100 is complete control; for Morningglory plant response rating: 0 to 100 scale
In short: as §2

[6] = test system: velvetleaf; assay: Test A pre-/postemergence greenhouse test; type: in vivo, Abutilon theophrasti; settings: for Plant response rating, Velvetleaf: 0 to 100 scale where 0 is no effect and 100 is complete control; for Velvetleaf plant response rating: 0 to 100 scale
In short: as §2

[7] = test system: giant foxtail; assay: Test A pre-/postemergence greenhouse test; type: in vivo, Setaria faberi; settings: for Plant response rating, Foxtail, Giant: 0 to 100 scale where 0 is no effect and 100 is complete control; for Foxtail, Giant plant response rating: 0 to 100 scale
In short: as §2

[8] = test system: redroot pigweed; assay: Test A pre-/postemergence greenhouse test; type: in vivo, Amaranthus retroflexus; settings: for Plant response rating, Pigweed: 0 to 100 scale where 0 is no effect and 100 is complete control; for Pigweed plant response rating: 0 to 100 scale
In short: as §2

[9] = test system: crabgrass; assay: Test A pre-/postemergence greenhouse test; type: in vivo, Digitaria sanguinalis; settings: for Plant response rating, Crabgrass, Large: 0 to 100 scale where 0 is no effect and 100 is complete control; for Crabgrass, Large plant response rating: 0 to 100 scale
In short: as §2

[10] = test system: rice; assay: Test C flooded paddy test; type: in vivo, Oryza sativa; settings: Flood
In short: as §1

[11] = test system: wheat; assay: Test A pre-/postemergence greenhouse test; type: in vivo, Triticum aestivum; settings: for Wheat plant response rating: 0 to 100 scale; for Plant response rating, Wheat: 0 to 100 scale where 0 is no effect and 100 is complete control
In short: as §2

[12] = test system: duck salad; assay: Test C flooded paddy test; type: in vivo, Heteranthera limosa; settings: Flood
In short: as §1

[13] = 62 g ai/ha, scale 0 to 100 (0 no effect, 100 complete control)
[14] = 250 g ai/ha, scale 0 to 100, 0 no effect, 100 complete control, 13 to 15 days
[15] = Postemergence, 500 g ai/ha, 0 is no effect, 100 is complete control
[16] = Preemergence, 125 g ai/ha, 0 no effect, 100 complete control
[17] = Preemergence, 500 g ai/ha, 0 no effect, 100 complete control
[18] = 62 g ai/ha, scale 0 to 100, 0 no effect, 100 complete control, 13 to 15 days

Row | Compound | Plant response rating, Barnyardgrass [1, 14] | Plant response rating, Sedge, Umbrella [2, 14] | Plant response rating, Barnyardgrass ([3]; Postemergence, 125 g ai/ha) | Barnyardgrass plant response rating [3, 15] | Barnyardgrass plant response rating [3, 16] | Plant response rating, Barnyardgrass ([3]; Preemergence, 500 g ai/ha) | Corn plant response rating [4, 15] | Corn plant response rating [4, 16] | Plant response rating, Corn ([4]; Preemergence, 500 g ai/ha) | Plant response rating, Morningglory ([5]; Postemergence, 125 g ai/ha) | Morningglory plant response rating [5, 15] | Morningglory plant response rating [5, 16] | Plant response rating, Morningglory ([5]; Preemergence, 500 g ai/ha) | Plant response rating, Velvetleaf ([6]; Postemergence, 125 g ai/ha) | Velvetleaf plant response rating [6, 15] | Velvetleaf plant response rating [6, 16] | Plant response rating, Foxtail, Giant ([7]; Postemergence, 125 g ai/ha) | Foxtail, Giant plant response rating [7, 15] | Foxtail, Giant plant response rating [7, 16] | Plant response rating, Foxtail, Giant ([7]; Preemergence, 500 g ai/ha) | also measured
1 | CC(Oc1c(CS(=O)(=O)c2ccc(Cl)c[n+]2[O-])c(C(F)(F)F)nn1C)C(F)(F)F (stereo not drawn) [Compound 95] | 20 | 35 | 50 | 70 | 10 | 90 | 0 | 0 | 0 | 0 | 20 | 0 | 20 | 40 | 40 | 0 | 20 | 80 | 70 | 90 | Plant response rating, Barnyardgrass [1, 13]: 0; Plant response rating, Sedge, Umbrella [2, 13]: 0; Velvetleaf plant response rating [6, 17]: 0; Plant response rating, Pigweed ([8]; Postemergence, 125 g ai/ha): 0; Pigweed plant response rating [8, 15]: 30; Pigweed plant response rating [8, 16]: 0; Plant response rating, Pigweed ([8]; Preemergence, 500 g ai/ha): 10; Plant response rating, Crabgrass, Large ([9]; Postemergence, 125 g ai/ha): 20; Crabgrass, Large plant response rating [9, 15]: 80; Crabgrass, Large plant response rating [9, 16]: 20; Plant response rating, Crabgrass, Large ([9]; Preemergence, 500 g ai/ha): 80; Plant response rating, Rice [10, 13]: 0; Plant response rating, Rice [10, 14]: 20; Wheat plant response rating [11, 15]: 30; Wheat plant response rating [11, 16]: 0; Wheat plant response rating [11, 17]: 30; Plant response rating, Ducksalad [12, 13]: 0; Plant response rating, Ducksalad [12, 14]: 80
2 | Cn1nc(C(F)(F)F)c(CS(=O)(=O)c2ccc(Cl)c[n+]2[O-])c1OCC(F)F [Compound 93] | 20 | 40 | 70 | 80 | 60 | 90 | 30 | 0 | 0 | 30 | 40 | 0 | 0 | 0 | 50 | 0 | 60 | 80 | 60 | 90 | Plant response rating, Barnyardgrass [1, 13]: 0; Plant response rating, Sedge, Umbrella [2, 13]: 0; Plant response rating, Corn ([4]; Postemergence, 125 g ai/ha): 30; Velvetleaf plant response rating [6, 17]: 40; Plant response rating, Pigweed ([8]; Postemergence, 125 g ai/ha): 60; Pigweed plant response rating [8, 15]: 70; Pigweed plant response rating [8, 16]: 70; Plant response rating, Pigweed ([8]; Preemergence, 500 g ai/ha): 100; Plant response rating, Crabgrass, Large ([9]; Postemergence, 125 g ai/ha): 50; Crabgrass, Large plant response rating [9, 15]: 80; Crabgrass, Large plant response rating [9, 16]: 60; Plant response rating, Crabgrass, Large ([9]; Preemergence, 500 g ai/ha): 90; Plant response rating, Rice [10, 13]: 0; Plant response rating, Rice [10, 14]: 30; Plant response rating, Wheat ([11]; Postemergence, 125 g ai/ha): 20; Wheat plant response rating [11, 15]: 40; Wheat plant response rating [11, 16]: 30; Wheat plant response rating [11, 17]: 30; Plant response rating, Ducksalad [12, 13]: 0; Plant response rating, Ducksalad [12, 14]: 50
3 | [O-][n+]1ccccc1[S+]([O-])C(Cl)c1c(C(F)(F)F)nn(CC(F)(F)F)c1Cl (stereo not drawn) [Compound 45] | 20 | 80 | 40 | 70 | 0 | 100 | 0 | 0 | 0 | 0 | 40 | 50 | 60 | 30 | 40 | 0 | 50 | 80 | 70 | 100 | Plant response rating, Barnyardgrass [1, 18]: 0; Plant response rating, Corn ([4]; Postemergence, 125 g ai/ha): 0; Plant response rating, Velvetleaf ([6]; Preemergence, 500 g ai/ha): 50; Plant response rating, Pigweed ([8]; Postemergence, 125 g ai/ha): 40; Pigweed plant response rating [8, 15]: 60; Pigweed plant response rating [8, 16]: 50; Plant response rating, Pigweed ([8]; Preemergence, 500 g ai/ha): 100; Plant response rating, Crabgrass, Large ([9]; Postemergence, 125 g ai/ha): 60; Crabgrass, Large plant response rating [9, 15]: 80; Crabgrass, Large plant response rating [9, 16]: 60; Plant response rating, Crabgrass, Large ([9]; Preemergence, 500 g ai/ha): 80; Plant response rating, Rice [10, 18]: 0; Plant response rating, Rice [10, 14]: 25; Plant response rating, Wheat ([11]; Postemergence, 125 g ai/ha): 0; Wheat plant response rating [11, 15]: 0; Wheat plant response rating [11, 16]: 0; Plant response rating, Wheat ([11]; Preemergence, 500 g ai/ha): 30; Plant response rating, Ducksalad [12, 18]: 40; Plant response rating, Ducksalad [12, 14]: 75
